Read-outs that look alike come from different tables or passages of the source.
Columns and labels:
in vitro = conditions: rat, microsomes
Experimental: (§3) 10 mM stock solutions of the test compounds in DMSO were prepared, diluted with acetonitrile and then with PBS, and vortexed, with the DMSO content controlled at 0.1%. The dilute working solutions (10 µL) were incubated with 65 µL of a liver microsome system (30 µL of 100 mM PBS, 25 µL of 20 mM MgCl2, and 10 µL of 5 mg/mL RLMs) and preheated at 37 °C for 5 min. 25 µL of 4 mM NADPH was added to start a reaction. Samples were taken at different time points (0 min, 5 min, 15 min, 30 min, 60 min, and 120 min), and an acetonitrile solution containing an internal standard was added to stop the reaction. After vortexing and centrifugation, the supernatants were collected and analyzed by LC-MS/MS, and the half-lives and clearance rates were calculated.

[1] = male, SD, rat, in vivo, po, 10 mg/kg
Experimental: (§4) Sample collection and preparation: After SPF SD rats (male, 210-230 g, 42-48 days, RILD Liver) in a good growth state were dosed intravenously at 2 mg/kg and orally at 10 mg/kg, blood samples were collected via the orbit at different blood collection time points and transferred to centrifuge tubes containing an anticoagulant; the intravenous blood collection time points were 0.08 hours, 0.25 hours, 0.5 hours, 1 hour, 2 hours, 4 hours, 6 hours, 8 hours, and 24 hours, and the oral blood collection time points were 0.25 hours, 0.5 hours, 1 hour, 2 hours, 4 hours, 6 hours, 8 hours, and 24 hours. The blood samples were immediately centrifuged at 4 °C and 8000 rpm for 10 minutes, and the plasma was collected and stored in an ultra-low-temperature freezer at -80 °C until it was analyzed by LC-MS/MS. Pharmacokinetic data analysis: Pharmacokinetic parameters of the compounds were calculated using pharmacokinetic software in a non-compartmental model. The peak plasma concentration (Cmax) and the time to reach the peak plasma concentration (Tmax) were taken as observation values. Parameters such as the half-life T1/2, the areas under the plasma concentration-time curve AUClast and AUCinf, the apparent volume of distribution Vss, and the clearance rate CL were determined through regression analysis of the linear terminal portion of the logarithmic plasma concentration-time curve and the linear trapezoidal rule.

MOLM-13 = assay: Antiproliferative activity against tumor cells (CCK8), MOLM-13; assay type: cell-based; conditions: Homo sapiens, MOLM-13 cells, 72 hours
Experimental: (§1) U937, MOLM-13, and MV4-11 cells (ATCC) in the logarithmic growth phase were separately diluted in a culture medium and plated onto 96-well plates at 5000 cells/well, and the plates were incubated in an incubator at 37 °C with 5% CO2 for 24 hours. 10 mM stock solutions of the compounds in DMSO were prepared and diluted with the culture medium to set 9 concentration gradients. Three replicate wells were set for each concentration. After compound addition, the plates were incubated in an incubator at 37 °C with 5% CO2 for 72 hours. The cell proliferation was assessed using the CCK8 method. The cell growth inhibition IC50 values of the compounds were determined using an enzyme labeling method. The IC50 values were calculated using GraphPad Prism 7 software.
(§2) The antiproliferative activity of the compounds against the tumor cells is shown in Table 3, where A represents IC50 < 1 nM, B represents 1 ≤ IC50 < 10 nM, C represents 10 nM ≤ IC50 < 100 nM, D represents 100 nM ≤ IC50 < 1000 nM, and E represents IC50 ≥ 1000 nM. Table 3. The antiproliferative activity of compounds against tumor cells

KG-1 cells = assay: Antiproliferative activity against KG-1 cells (CCK8); assay type: cell-based; conditions: Homo sapiens, 72 hours
Experimental: KG-1 cells in the logarithmic growth phase were diluted in a culture medium (RPMI + 10% FBS) and plated onto 96-well plates at 5000 cells/well, and the plates were incubated in an incubator at 37 °C with 5% CO2 for 24 hours. 10 mM stock solutions of the test compounds of the present disclosure in DMSO were prepared and diluted with the culture medium to set 9 concentration gradients. Three replicate wells were set for each concentration. After compound addition, the plates were incubated in an incubator at 37 °C with 5% CO2 for 72 hours. The cell proliferation was assessed using the CCK8 method. The cell growth inhibition IC50 values of the compounds were determined using an enzyme labeling method. The IC50 values were calculated using GraphPad Prism 7 software.
as §2, with “KG-1” for “the tumor”, “2,” for “3,”, “2.” for “3.”, “KG-1” for “tumor”

in vivo = conditions: male, SD, rat
Experimental: as §4

U937 = assay: Antiproliferative activity against tumor cells (CCK8), U937; assay type: cell-based; conditions: Homo sapiens, U-937, 72 hours
Experimental: as §1, §2

GSPT1 protein = biological target: T1, GSPT1 protein (Homo sapiens, UniProt P15170+Q96SW2); assay: Degradation of GSPT1 in KG-1 cells (Western blot); assay type: cell-based; set-up: percent GSPT1 degradation: dose or concentration left out as unconfirmed; conditions: for percent GSPT1 degradation at 0.2 µM: compound concentration 200 nM
T1 construct: host or cells: KG-1 cells
T1 sequence (P15170 whole entry): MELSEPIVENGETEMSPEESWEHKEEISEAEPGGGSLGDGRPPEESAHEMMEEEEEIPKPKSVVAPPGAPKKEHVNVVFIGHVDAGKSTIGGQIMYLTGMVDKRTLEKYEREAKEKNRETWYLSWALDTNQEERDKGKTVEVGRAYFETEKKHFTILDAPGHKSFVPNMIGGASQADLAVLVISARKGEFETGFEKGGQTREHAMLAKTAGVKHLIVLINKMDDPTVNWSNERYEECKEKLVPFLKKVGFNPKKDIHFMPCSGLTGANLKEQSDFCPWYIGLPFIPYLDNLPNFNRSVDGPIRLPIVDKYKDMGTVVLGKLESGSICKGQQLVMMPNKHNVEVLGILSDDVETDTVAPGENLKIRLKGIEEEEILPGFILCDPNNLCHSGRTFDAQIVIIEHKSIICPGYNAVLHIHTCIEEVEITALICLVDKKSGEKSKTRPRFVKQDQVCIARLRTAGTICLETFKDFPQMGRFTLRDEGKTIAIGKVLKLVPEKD
T1 sequence (Q96SW2 whole entry): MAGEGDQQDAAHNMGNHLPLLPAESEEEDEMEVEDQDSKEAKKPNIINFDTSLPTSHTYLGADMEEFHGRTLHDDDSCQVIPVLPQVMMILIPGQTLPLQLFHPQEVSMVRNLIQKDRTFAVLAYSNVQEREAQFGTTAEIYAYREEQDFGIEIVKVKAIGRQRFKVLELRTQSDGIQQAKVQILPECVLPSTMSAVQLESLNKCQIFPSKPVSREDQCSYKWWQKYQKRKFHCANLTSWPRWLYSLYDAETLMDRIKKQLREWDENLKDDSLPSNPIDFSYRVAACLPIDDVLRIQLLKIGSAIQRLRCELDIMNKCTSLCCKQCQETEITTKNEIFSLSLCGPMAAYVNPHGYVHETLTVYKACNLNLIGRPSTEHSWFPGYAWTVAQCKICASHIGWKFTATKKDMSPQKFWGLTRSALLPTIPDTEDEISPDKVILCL
T1 sequence (Q16531 whole entry partner): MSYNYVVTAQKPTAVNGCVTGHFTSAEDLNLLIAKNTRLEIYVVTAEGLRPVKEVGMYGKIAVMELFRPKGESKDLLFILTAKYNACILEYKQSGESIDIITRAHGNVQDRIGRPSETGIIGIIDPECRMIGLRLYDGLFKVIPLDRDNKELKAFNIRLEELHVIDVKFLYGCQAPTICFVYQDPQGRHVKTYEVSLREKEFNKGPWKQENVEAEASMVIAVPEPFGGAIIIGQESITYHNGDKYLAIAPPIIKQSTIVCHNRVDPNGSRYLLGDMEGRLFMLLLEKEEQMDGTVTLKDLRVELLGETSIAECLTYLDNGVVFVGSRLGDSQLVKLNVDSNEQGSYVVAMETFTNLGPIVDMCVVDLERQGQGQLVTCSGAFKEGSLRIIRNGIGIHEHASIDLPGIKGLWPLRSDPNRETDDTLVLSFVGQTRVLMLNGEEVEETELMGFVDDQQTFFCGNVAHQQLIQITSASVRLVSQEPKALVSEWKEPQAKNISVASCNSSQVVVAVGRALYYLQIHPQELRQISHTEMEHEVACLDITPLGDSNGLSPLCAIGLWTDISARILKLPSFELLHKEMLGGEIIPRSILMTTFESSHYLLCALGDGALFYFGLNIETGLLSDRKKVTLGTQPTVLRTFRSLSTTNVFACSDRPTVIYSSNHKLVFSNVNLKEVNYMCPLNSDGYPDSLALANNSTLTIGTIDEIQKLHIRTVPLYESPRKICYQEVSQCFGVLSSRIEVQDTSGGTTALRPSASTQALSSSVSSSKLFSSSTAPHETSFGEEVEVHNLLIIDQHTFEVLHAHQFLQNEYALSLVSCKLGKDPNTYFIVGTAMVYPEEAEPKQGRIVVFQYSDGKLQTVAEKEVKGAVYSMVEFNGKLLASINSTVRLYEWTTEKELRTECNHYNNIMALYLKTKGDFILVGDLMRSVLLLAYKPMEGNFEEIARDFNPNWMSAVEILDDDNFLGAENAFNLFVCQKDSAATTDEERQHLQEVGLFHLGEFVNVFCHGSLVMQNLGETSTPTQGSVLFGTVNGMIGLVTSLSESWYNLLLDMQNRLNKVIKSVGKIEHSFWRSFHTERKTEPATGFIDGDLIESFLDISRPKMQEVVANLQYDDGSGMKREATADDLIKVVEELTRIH
Experimental: KG-1 cells (ATCC) were grown in an IMDM culture medium (containing 20% FBS). After centrifugation and counting, the cell concentration was adjusted. The cells were plated onto 6-well plates at 10^6 cells/well, with 1350 µL per well. 150 µL of DMSO and the test compounds of the present disclosure (compound concentration: 200 nM) were added. The plates were incubated in an incubator at 37 °C with 5% CO2 for 4 hours. The cells were centrifuged, and the culture medium was discarded. PBS was added to wash the cells and then discarded. Whole cell lysates were prepared using a protease inhibitor cocktail (100×, Fude Biological), a protein phosphatase inhibitor cocktail (100×, Fude Biological), SuperNuclease (Beyotime), and a high-intensity RIPA lysis buffer (Thermo Fisher) and placed on ice for 30 minutes. After centrifugation, the cell debris precipitates were discarded, and the whole cell lysate supernatants were collected and transferred to new centrifuge tubes. After a BCA protein assay, samples were prepared using a 5× loading buffer (Thermo Fisher). The samples were subjected to protein electrophoresis separation in a 4-20% precast gel (SDS-PAGE gel), transferred to a PVDF membrane, then blocked with 5% NFDM/TBST at room temperature for 1 hour, incubated overnight with primary antibodies at 4 °C, and incubated with a secondary antibody at room temperature for 2 hours the next day. Signals were detected using a MINICHEMITM imaging system.
Primary antibodies: • Anti-GSPT1: Abcam ab234433 • Anti-beta actin: Fude Biological FD0060
Secondary antibody: Anti-rabbit peroxidase-linked secondary antibody: Fude Biological FDG007
The degradation effects of the compounds on GSPT1 protein are shown in Table 1, where A represents a GSPT1 protein degradation percentage of no less than 80%, B represents a degradation percentage of less than 80% but no less than 50%, C represents a degradation percentage of less than 50% but no less than 25%, and D represents a degradation percentage of less than 25%. Table 1. The degradation of GSPT1 protein by compounds

MV4-11 = assay: Antiproliferative activity against tumor cells (CCK8), MV4-11; assay type: cell-based; conditions: Homo sapiens, MV4-11 cells, 72 hours
Experimental: as §1, §2

[2] = Metabolic stability in in vitro rat liver microsomes; conditions: for half-life / microsomal CLint: rat
Experimental: as §3

[3] = In vivo pharmacokinetic study in rats; conditions: rat; for AUC(0-inf) / AUC(0-t) / C0 / Vd / clearance / half-life / Cmax / Tmax: male, SD, plasma; for F: PO 10mg/kg; for exposure level relative to CC-90009: administered orally
Experimental: as §4

[4] = test system: human leukemia cells MV411; assay: In vivo pharmacodynamic study in MV411 acute myeloid leukemia xenograft mouse model; set-up: species or system BABL/c Nude mouse; conditions: for weight loss in mice: once daily by oral gavage
Experimental: The human leukemia cells MV411 (Cell Bank, Chinese Academy of Sciences) used in this experiment were cultured in an IMDM culture medium supplemented with 10% FBS in an incubator containing CO2 at 37 °C. Before the cells were continuously sub-cultured to the tenth generation, MV411 cells in the logarithmic growth phase were used, and the cell concentration was adjusted to 1 × 10^8 cells/mL with a serum-free culture medium. Each BABL/c Nude mouse (Jiangsu GemPharmatech Co., Ltd., female, 4-6 weeks old, 14-16 g) was inoculated with 100 µL of the cell suspension by subcutaneous injection on the right dorsal side (near the axilla) under sterile conditions. When the mean tumor volume of the tumor-bearing mice reached approximately 100 mm^3, the mice were randomly divided into groups, with the tumor volume in each group being roughly the same. The day of grouping and administration was defined as day 0. The animals in each treatment group were given a compound once daily by oral gavage at 15 mg/kg, 30 mg/kg, or 60 mg/kg. The body weight and tumor volume of the animals were measured every other day.
Experimental indicator: The anti-tumor efficacy of the compounds was evaluated using the relative tumor growth inhibition rate (TGI). Tumor weight TGI (%) = {1 - [(final average tumor weight of experimental group)/(final average tumor weight of control group of tumor-bearing mice without administration)]} × 100%. Tumor volume TGI (%) = [1 - relative tumor volume of experimental group/relative tumor volume of control group of tumor-bearing mice without administration] × 100%.

IC50 (MOLM-13) [nM] | IC50 (U937) [nM] | percent GSPT1 degradation at 0.2 µM (GSPT1 protein; KG-1 cells, 4 hours) [%] | IC50 (MV4-11) [nM] | half-life [2] [h] | microsomal CLint [2] [µL/min/mg] | AUC(0-inf) ([3]; iv, 2 mg/kg) [ng·h/mL] | AUC(0-t) ([3]; iv, 2 mg/kg) [ng·h/mL] | C0 ([3]; iv, 2 mg/kg) [ng/mL] | Vd ([3]; iv, 2 mg/kg) [L/kg] | clearance ([3]; iv, 2 mg/kg) [mL/min/kg] | half-life ([3]; iv, 2 mg/kg) [h] | AUC(0-inf) ([3]; po, 10 mg/kg) [ng·h/mL] | AUC(0-t) ([3]; po, 10 mg/kg) [ng·h/mL] | Cmax ([3]; po, 10 mg/kg) [ng/mL] | Tmax ([3]; po, 10 mg/kg) [h] | half-life ([3]; po, 10 mg/kg) [h] | F [3] [%] | SMILES | IC50 (KG-1 cells) [nM] | weight loss in mice [4] | other results
10 to 100 | 1 to 10 | > 80 | 10 to 100 | 6.17 | 3.75 | 1920 ± 267 | 1900 ± 270 | 3840 ± 226 | 0.92 ± 0.07 | 17.6 ± 2.6 | 1.38 ± 0.14 | 1850 ± 330 | 1810 ± 343 | 619 ± 42 | 0.75 ± 0.43 | 2.69 ± 1.13 | 19.3±3.4 | O=C1CCC(N2Cc3cc(CNC(=O)C4=Cc5ccccc5OC4)ccc3C2=O)C(=O)N1 (centres unmarked) [Compound A-1, N-((2-(2,6-Dioxopiperidin-3-yl)-1-oxoisoindolin-5-yl)methyl)-2H-chromene-3-carboxamide] | 10 to 100 |  | 
10 to 100 | 10 to 100 | > 80 | 10 to 100 | 4.67 | 4.95 |  |  |  |  |  |  |  |  |  |  |  |  | O=C1CCC(N2Cc3cc(CNC(=O)C4=Cc5cc(F)ccc5OC4)ccc3C2=O)C(=O)N1 (centres unmarked) [Compound A-3, N-((2-(2,6-Dioxopiperidin-3-yl)-1-oxoisoindolin-5-yl)methyl)-6-fluoro-2H-chromene-3-carboxamide] | 10 to 100 |  | 
 |  | > 80 |  | 3.11 | 7.43 | 17300 ± 1470 | 17200 ± 1500 | 32100 ± 1550 | 0.14 | 1.9 ± 0.1 | 1.37 ± 0.04 | 7190 | 8380 ± 1280 | 2810 ± 1530 | 0.66 ± 0.28 | 1.71 | 9.8±1.5 | O=C1CCC(N2Cc3c(ccc(CNC(=O)C4=Cc5cc(OC(F)(F)F)ccc5OC4)c3F)C2=O)C(=O)N1 (centres unmarked) [Compound A-42, N-((2-(2,6-Dioxopiperidin-3-yl)-4-fluoro-1-oxoisoindolin-5-yl)methyl)-6-(trifluoromethoxy)-2H-chromene-3-carboxamide] | 1 to 10 | no significant weight loss | in vitro rat liver microsome metabolic half-life relative to CC-90009 ([2]; ratio to the clinical drug CC-90009): more than 2 times; tumor volume TGI ([4]; 60 mg/kg once daily by oral gavage): 100%; exposure level relative to CC-90009 [3]: four times; plasma drug exposure level relative to CC-90009 ([3]; intravenous injection): fourteen times
1 to 10 | 1 to 10 | > 80 | 1 to 10 | 0.735 | 31.4 |  |  |  |  |  |  |  |  |  |  |  |  | O=C1CCC(N2Cc3cc(CNC(=O)C4COc5ccccc5C4)ccc3C2=O)C(=O)N1 (centres unmarked) [Compound B-1, N-((2-(2,6-Dioxopiperidin-3-yl)-1-oxoisoindolin-5-yl)methyl)chromane-3-carboxamide] | 10 to 100 |  | 

SMILES | IC50 (MOLM-13) [nM] | IC50 (U937) [nM] | percent GSPT1 degradation at 0.2 µM (GSPT1 protein; KG-1 cells, 4 hours) [%] | IC50 (MV4-11) [nM] | half-life [2] [h] | microsomal CLint [2] [µL/min/mg] | AUC(0-inf) ([3]; iv, 2 mg/kg) [ng·h/mL] | AUC(0-t) ([3]; iv, 2 mg/kg) [ng·h/mL] | C0 ([3]; iv, 2 mg/kg) [ng/mL] | Vd ([3]; iv, 2 mg/kg) [L/kg] | clearance ([3]; iv, 2 mg/kg) [mL/min/kg] | half-life ([3]; iv, 2 mg/kg) [h] | AUC(0-inf) ([3]; po, 10 mg/kg) [ng·h/mL] | AUC(0-t) ([3]; po, 10 mg/kg) [ng·h/mL] | Cmax ([3]; po, 10 mg/kg) [ng/mL] | Tmax ([3]; po, 10 mg/kg) [h] | half-life ([3]; po, 10 mg/kg) [h] | F [3] [%] | IC50 (KG-1 cells) [nM] | weight loss in mice [4] | other results
O=C1CCC(N2Cc3cc(CNC(=O)C(F)(F)c4ccc(Cl)cc4)ccc3C2=O)C(=O)N1 (centres unmarked) [CC-90009] | 100 to 1000 | 10 to 100 | 50 to 80 | 10 to 100 |  |  |  |  |  |  |  |  |  |  |  |  |  |  | 10 to 100 |  | half-life (in vitro): 1.29 h; microsomal CLint (in vitro): 17.9 µL/min/mg; F [1]: 31.2±9.1%; AUC(0-inf) (in vivo; iv, 2 mg/kg): 1200 ± 304 ng·h/mL; AUC(0-t) (in vivo; iv, 2 mg/kg): 1200 ng·h/mL; C0 (in vivo; iv, 2 mg/kg): 1870 ± 492 ng/mL; Vd (in vivo; iv, 2 mg/kg): 2.85 ± 0.63 L/kg; clearance (in vivo; iv, 2 mg/kg): 28.8 ± 6.4 mL/min/kg; half-life (in vivo; iv, 2 mg/kg): 1.44 ± 0.26 h; AUC(0-inf) (in vivo; po, 10 mg/kg): 1896 ± 14 ng·h/mL; AUC(0-t) (in vivo; po, 10 mg/kg): 1892 ± 12 ng·h/mL; Cmax (in vivo; po, 10 mg/kg): 616 ± 53 ng/mL; Tmax (in vivo; po, 10 mg/kg): 1.5 ± 0.71 h; half-life (in vivo; po, 10 mg/kg): 2.91 ± 0.28 h
O=C1CCC(N2Cc3cc(CNC(=O)C4=Cc5cc(OC(F)(F)F)ccc5OC4)ccc3C2=O)C(=O)N1 (centres unmarked) [Compound A-10, N-((2-(2,6-Dioxopiperidin-3-yl)-1-oxoisoindolin-5-yl)methyl)-6-trifluoromethoxy-2H-chromene-3-carboxamide] | 1 to 10 | 1 to 10 |  | 10 to 100 | 2.77 | 8.35 | 4350 ± 1200 | 4310 ± 1200 | 16700 ± 4330 | 0.42 ± 0.13 | 8.1 ± 2.5 | 1.53 ± 0.29 | 4980 ± 2740 | 4950 ± 2770 | 3460 ± 1540 | 0.33 ± 0.14 | 3.03 ± 0.63 | 22.9±12.6 | 10 to 100 | no significant weight loss | exposure level relative to CC-90009 [3]: nearly three times; clearance rate relative to CC-90009 ([3]; intravenous injection): one third; plasma drug exposure level relative to CC-90009 ([3]; intravenous injection): nearly four times; percent GSPT1 degradation (GSPT1 protein; KG-1, 4 h, read-out: GSPT1 degradation): > 80%; degradation of GSPT1 in KG-1 and MV4-11 cells (GSPT1 protein; KG-1 and MV4-11 cells, FIGs. 1 and 2): concentration-dependent and time-dependent; percentage of degradation of GSPT1 protein (GSPT1 protein; KG-1 cells, 200 nM, 4 hours): higher than 80%

From patent publication EP4703358A1, “BENZO SIX-MEMBERED HETEROCYCLIC GSPT1 PROTEIN DEGRADATION AGENT AND USE THEREOF” (China Pharmaceutical University, priority 2023, dated 2024)
